Test results from patent US11413278B2, “Compounds and methods for promoting stress resistance” (priority 2015, dated 2022).
Where two headings read alike, the source gives them in different places.

Key:
NRF2 = test: qPCR analysis of NRF2-regulated genes; type: cell-based, human; conditions: for fold induction at 10 µM: Homo sapiens
Procedure, shortened: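 Expression of HMOX1, NQO1, GCLC and GSTM1 measured by qPCR relative to B2M, PPIA and GAPDH. Cells were WI-38 fibroblasts exposed 24 hrs to 10 μM compound, with RNA and cDNA prepared via Cells-to-Ct. Where stated, cells were first transfected 36 hrs with FOXO3 or NRF2 siRNA at 10 nM.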

FOXO3 = FOXO3 siRNA knockdown: dependency for H2O2-resistance; type: cell-based, human
Method: For qPCR analysis, WI-38 cells were treated with small molecules (at 10 μM) (biological quadruplicates) for 24 hrs and processed for RNA isolation and reverse transcription (RT) with the Cells-to-Ct Kit (Life Technologies), following manufacturer's instructions. RT products were diluted with H2O and used for qPCR analysis on an ABI 7300 system (Life Technologies) (technical triplicates). Relative expression levels of target genes were normalized to the genes B2M, PPIA and GAPDH. To knock down the expression of FOXO3 or NRF2, WI-38 cells were transfected, using the RNAiMAX reagents (Life Technologies), with siRNA oligos (at 10 nM final concentration, 10 ml culture medium) for FOXO3 (Life Technologies) or NRF2 (Integrated DNA Technologies) on 10-cm petri dishes for 36 hrs, and then detached and aliquoted onto 96-well (for qPCR analysis) or 384-well plates (for H2O2-stress treatment). ˜24 hrs later, small molecules were introduced and incubated with cells for 24 hrs. Cells were then either processed with the Cells-to-Ct Kit to prepare RT products for qPCR analysis or subjected to H2O2 (700 μM) for 3 hrs and assayed for viability. The knockdown efficiency of FOXO3 or NRF2 was checked at 36 hrs post-transfection and at the end as well. […]
Applicants used siRNA to knock down FOXO3 expression by ˜70% in an attempt to identify whether the activation of these genes depends on activity of FOXO3 and/or NRF2. […] We used siRNA to knock down FOXO3 expression by ˜60% to 70% (FIG. 3; see data in Table 6). […] (Given the caveat that FOXO3 was not fully knocked down, partial dependency was scored when the H2O2-resistance capacity was reduced by at least 25% but less than 50% upon siRNA knockdown). At least for Gr-7A and Gr-7C, which are structurally related, the observed FOXO3-dependency for H2O2-resistance is consistent with their strong effects to induce FOXO3 target genes (Tables 1a-1f, Table 6, & Table 15), including SOD2 and GADD45A.

WI-38 cells = test: Long-term effects on cell viability (5 days, ATP; morphology, PI imaging); type: cell-based; conditions: 10 μM; for Luminescence signal for ATP measurement, day-1 Average / Luminescence signal for ATP measurement, day-2 Average / Luminescence signal for ATP measurement, day-3 Average / Luminescence signal for ATP measurement, day-4 Average / Luminescence signal for ATP measurement, day-5 Average / viability at 10 µM: Batch 1; for Luminescence signal for ATP measurement, day-1 Average / Luminescence signal for ATP measurement, day-2 Average / Luminescence signal for ATP measurement, day-3 Average / Luminescence signal for ATP measurement, day-4 Average / Luminescence signal for ATP measurement, day-5 Average: n = 6, day-0 luminescence = 320956 ± 24708; for viability at 10 µM: Homo sapiens, WI-38, 120 h, DMSO ctrl = 100.0%, read-out: ATP luminescence by day-5 normalized; for Luminescence signal for ATP measurement, day-5 Average / viability at 10 µM: day-5; for O = Potential toxicity / Q = Potential toxicity / Reduction of ATP content after 5 days of continuous incubation: human, 5 days;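 as to Luminescence signal for ATP measurement, day-2 Average: compounds at 10 µM with ATP read daily over 5 days of treatment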;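 as to Luminescence signal for ATP measurement, day-3 Average: compounds at 10 µM with ATP read daily over 5 days of treatment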;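 as to Luminescence signal for ATP measurement, day-4 Average: compounds at 10 µM with ATP read daily over 5 days of treatment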;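 as to Luminescence signal for ATP measurement, day-5 Average: compounds at 10 µM with ATP read daily over 5 days of treatment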
[1] = 24 h, Assay 12(o), at 10 uM, qPCR, read-out: Induction of NRF2-regulated genes: HMOX1 normalized fold-change
[2] = WI-38 cells, 10 μM, 24 hrs, n=4, qPCR normalized by B2M, read-out: GCLC Normalized fold change
[3] = WI-38 cells, 10 μM, 24 hrs, n=4, qPCR normalized by B2M, read-out: GSTM1 Normalized fold change
[4] = WI-38 cells, 10 μM, 24 hrs, n=4, qPCR normalized by B2M, read-out: HMOX1 Normalized fold change
[5] = WI-38 cells, 10 μM, 24 hrs, n=4, qPCR normalized by B2M, read-out: NQO1 Normalized fold change
[6] = 24 h, Assay 12(o), at 10 uM, qPCR, read-out: Induction of NRF2-regulated genes: GCLC normalized fold-change
[7] = rounded fold change, WI-38 cells, 10 μM, 24 hrs (RP29 for Gr-4D), read-out: Summary of effects on NRF2-regulated genes: GSTM1
[8] = 10 μM, 24 hrs, WI-38 cells, qPCR, normalized to B2M, n = 4, read-out: GSTM1 expression, normalized fold change (NRF2-regulated gene)
[9] = rounded fold change, WI-38 cells, 10 μM, 24 hrs (RP29 for Gr-4D), read-out: Summary of effects on NRF2-regulated genes: NQO1
[10] = rounded fold change, WI-38 cells, 10 μM, 24 hrs, read-out: Summary of effects on NRF2-regulated genes: GCLC
[11] = 10 μM, 24 hrs, WI-38 cells, qPCR, normalized to B2M, n = 4, read-out: GCLC expression, normalized fold change (NRF2-regulated gene)
[12] = 10 μM, 24 hrs, WI-38 cells, qPCR, normalized to B2M, n = 4, read-out: NQO1 expression, normalized fold change (NRF2-regulated gene)

Row | Structure (SMILES) | F = Potential NRF2 Activation (NRF2; 2-point score) | fold induction at 10 µM (NRF2; [1]) | fold induction at 10 µM (NRF2; [2]) | fold induction at 10 µM (NRF2; [3]) | fold induction at 10 µM (NRF2; [4]) | fold induction at 10 µM (NRF2; [5]) | F = Potential NRF2 Activation (NRF2; summary score) | I = FOXO3-dependency for H2O2-resistance (FOXO3; score) | I = FOXO3-dependency for H2O2-resistance (FOXO3; summary score) | Luminescence signal for ATP measurement, day-1 Average (WI-38 cells) | Luminescence signal for ATP measurement, day-2 Average (WI-38 cells) | Luminescence signal for ATP measurement, day-3 Average (WI-38 cells) | Luminescence signal for ATP measurement, day-4 Average (WI-38 cells) | Luminescence signal for ATP measurement, day-5 Average (WI-38 cells) | viability at 10 µM (WI-38 cells) [%] | O = Potential toxicity (WI-38 cells) | Q = Potential toxicity (WI-38 cells) | Reduction of ATP content after 5 days of continuous incubation (WI-38 cells) | fold induction at 10 µM (NRF2; [6]) | fold induction at 10 µM (NRF2; [7]) | other results
1 | O=C(NCc1cccnc1)/C(=C\c1ccc(Br)cc1)S(=O)(=O)c1ccccc1 [Gr-7B] | 0 | 17.9 | 1.8 | 0.981 | 54.2 | 1.41 | 0 | 0 | 0 | 311883 | 56498 | 40001 | 44298 | 40768 | 4 | 1 | 1 | more than 40% |  |  | fold induction at 10 µM (NRF2; rounded fold change, WI-38 cells, 10 μM, 24 hrs (RP11 for Gr-1D, RP29 for Gr-4D), read-out: Summary of effects on NRF2-regulated genes: HMOX1): 54.1; fold induction at 10 µM (NRF2; 10 μM, 24 hrs, WI-38 cells, qPCR, normalized to B2M, n = 4, read-out: HMOX1 expression, normalized fold change (NRF2-regulated gene)): 54.1
2 | O=C(Nc1cccc(C(F)(F)F)c1)c1ccc([N+](=O)[O-])o1 [Gr-1E] | 0 | 0.79 | 1.55 | 2.11 | 1.06 | 1.11 | 0 | 0 | 0 | 474558 | 698358 | 788420 | 1038011 | 1066135 | 104 | 0 | 0 |  | 1.36 | 2.11 | fold induction at 10 µM (NRF2; [8]): 2.11
3 | NS(=O)(=O)c1ccc(NC(=O)c2ccc([N+](=O)[O-])o2)cc1 [Gr-1A] | 2 |  | 1.61 | 2.53 | 0.973 | 1.79 | 0 | 0 | 0 | 477461 | 610735 | 739676 | 878508 | 943836 | 91.9 | 0 | 0 | more than 40% | 1.48 | 1.45 | fold induction at 10 µM (NRF2; 24 h, Assay 12(o), at 10 uM, qPCR, read-out: Induction of NRF2-regulated genes: GSTM1 normalized fold-change): 1.45; fold induction at 10 µM (NRF2; [9]): 1.79; fold induction at 10 µM (NRF2; [10]): 1.61; fold induction at 10 µM (NRF2; 10 μM, 24 hrs, WI-38, read-out: Expression of at least two NRF2 target genes): > 1.5; fold induction at 10 µM (NRF2; [11]): 1.61; fold induction at 10 µM (NRF2; [8]): 1.45; fold induction at 10 µM (NRF2; [12]): 1.79; FOXO3-dependency for H2O2-resistance (experiment 3) (FOXO3; 10 uM, with & without H2O2, FOXO3 knockdown in WI-38 cells, YES = resistance reduced by at least 50%, partial = 25% to 50%): No; FOXO3-dependency for H2O2-resistance (experiment 1 & 2) (FOXO3; 10 uM, with H2O2, FOXO3 knockdown in WI-38 cells, YES = resistance reduced by at least 50%, partial = 25% to 50%): No
4 | Cc1cc(N)n(-c2ccccc2C(=O)O)n1 [Gr-6A] | 0 |  | 1.03 | 1.09 | 1.1 | 1.02 | 0 | 0 | 0 | 581273 | 717601 | 804970 | 1007061 | 986943 | 96.1 | 0 | 0 |  |  |  | 
5 | [O-][n+]1onc2c3nsnc3c(Br)cc21 [O17] | 0 |  | 1.35 | 1.12 | 1.08 | 1.47 | 0 | 0 | 0 | 507143 | 697351 | 849445 | 1073975 | 1070851 | 104 | 0 | 0 |  | 1.36 |  | Induction of at least two NRF2-regulated genes (HMOX1, NQO1, GCLC, GSTM1) (NRF2; 10 μM, 24 hrs, WI-38): could induce expression of at least two genes; fold induction at 10 µM (NRF2; 24 h, Assay 12(o), at 10 uM, qPCR, read-out: Induction of NRF2-regulated genes: NQO1 normalized fold-change): 1.47; fold induction at 10 µM (NRF2; [9]): 1.47; fold induction at 10 µM (NRF2; [10]): 1.36; fold induction at 10 µM (NRF2; [11]): 1.36; fold induction at 10 µM (NRF2; [12]): 1.47
